Laboratory results as given in paper PMC3836617 (Pharmaceutics, 2013).
Several values for one entry are separate records, joined by “and”; a condition that tells them apart may be missing. Equal values may be shown once. Read-outs that look alike come from different tables or passages of the source.

Experiments:
[1] = for Permeated amount after 12 h: full-thickness skin preincubated with 2 mM BNPP 1 h
Protocol: (§3) Fresh excised abdominal skin was used for these experiments. To strip skin, stratum corneum was removed by 20 successive strippings using cellophane adhesive tape (Nichiban K.K., Japan) according to conventional methods. The excised skin was mounted between half-cells with the dermal side in contact with receptor fluid (pH 6.8 phosphate-buffered saline (PBS) with 3% BSA). Receptor fluid flow rate was 5 mL/h. Two milliliters of drug suspension (drug amount = twice the amount required for saturation) in pH 4.0 acetate buffer was added to the donor chamber.
In an inhibition study for CES, skin mounted between the half-cells was preincubated with the dermal side in contact with 2 mM BNPP (dissolved in pH 6.8 PBS containing 3% BSA) for 1 h.
(§4) The in vitro permeation parameters were calculated from the penetration data using the following equations: Js = (KmDC)/δ = KpC and τ = δ^2/6D, where Js is steady state flux, Km is the solvent membrane partition coefficient of drug, D is diffusion coefficient, C is drug concentration in donor chamber, δ is thickness of rat skin, Kp is the permeability coefficient of drug, and τ represents lag time.

[2] = for Permeated amount after 12 h: labelled species found in receptor fluid
Protocol: as §3, §4

[3] = Hydrolysis in rat skin S9 fraction; type: in vitro ADME; conditions: for Hydrolysis in skin S9 relative to liver microsomes (slower) / Vmax in skin S9 relative to liver microsomes (smaller) / Vmax/Km in skin S9 relative to liver microsomes (smaller): skin S9 vs liver microsomes
Protocol: After hair was carefully clipped and shaved, rats were sacrificed by exsanguination under ether anesthesia. Abdominal and dorsal skin was removed using a scalpel and dissection scissors. A few pieces of skin were stored in liquid nitrogen for extraction of total RNA. The skin was minced, mixed with five volumes of ice-cold 4-(2-hydroxyethyl)-1-piperazineethanesulfonic acid (HEPES) buffer (50 mM, pH 7.4) containing 0.15 M KCl, and homogenized using a Polytron (Kinematica, Lucerne, Switzerland) on ice. Whole homogenate was filtered through a funnel containing buffer-soaked cotton wool. After centrifugation of the skin homogenate at 9000g for 20 min at 4 °C, the supernatant fraction (S9) was obtained. Protein content was determined by the method described by Bradford using bovine serum albumin (BSA) as standard. The skin S9 was stored at −80 °C until use.
(§1) Hydrolysis of PNPA, PNPB, and caproyl-PL were performed in S9 and microsomal fractions of rat liver, testis, kidney and skin. Tissue samples were diluted with 50 mM HEPES (pH 7.4) buffer at appropriate protein concentrations and preincubated for 5 min at 37 °C. The hydrolysis reaction was initiated by the addition of test compounds dissolved in dimethyl sulfoxide (DMSO). The final concentration of DMSO was less than 0.5%, which has no effect on hydrolytic activity. The rate of hydrolysis of PNPA and PNPB (final concentrations 15–500 μM) was determined by the initial linear increase in absorbance of p-nitrophenol at 405 nm (V-530, JASCO Co., Tokyo, Japan).
For the hydrolysis of caproyl-PL, the reaction was terminated by addition of 5 mL ethylacetate. After extraction of PL, as previously described, stereoselective determination was carried out using high-performance liquid chromatography (HPLC).

[4] = cited from earlier work
[5] = Nonenzymatic hydrolysis of caproyl-PL to PL in buffer; type: physicochemical
Protocol: Hydrolysis was greater under basic buffer conditions […]. […] The hydrolysis of caproyl-PL was <0.05% during the sampling period (1 h) at pH 6.8 in PBS containing 3% BSA.

[6] = Hydrolysis in rat liver microsomes; type: in vitro ADME; conditions: pH 7.4; for Vmax: liver microsomes; for Km: liver microsomes 20 μg/mL for PNPA, 10 μg/mL for PNPB
Protocol: (§2) The excised liver, kidney, and testis were washed with ice-cold 0.15 M KCl, and finely minced using scissors. Minced tissues were homogenized with 3 volumes of 50 mM HEPES buffer (pH 7.4) containing 0.15 M KCl in a Potter–Elvehjem glass homogenizer equipped with a Teflon pestle under ice-cold conditions. Homogenates (25% wet w/v) were centrifuged at 9000g for 20 min at 4 °C, to give the S9 fraction. S9 fraction was further centrifuged at 100,000g for 1 h at 4 °C. The resulting pellets were resuspended in 50 mM HEPES buffer (pH 7.4) containing 0.15 M KCl to prepare the microsomal fraction. Protein concentrations were determined by the method of Bradford using BSA as standard. S9 and the microsomal fraction were stored at −80 °C until use.
as §1

[7] = Hydrolysis in rat kidney microsomes; type: in vitro ADME; conditions: pH 7.4; for Vmax: kidney microsomes; for Km: kidney microsomes 10 μg/mL
Protocol: as §2, §1

[8] = Hydrolysis in rat testis microsomes; type: in vitro ADME; conditions: pH 7.4; for Km: testis microsomes 10 μg/mL for PNPA, 5 μg/mL for PNPB; for Vmax: testis microsomes
Protocol: as §2, §1

esterases of rat skin S9 = assay: Native PAGE esterase activity staining of rat skin S9 with 1-naphthylacetate; type: biochemical; conditions: native PAGE stained with 1-naphthylacetate
Protocol: Polyacrylamide gel electrophoresis (PAGE) was performed as described by Mentlein et al. [15]. Polyacrylamide gels (7.5% w/w), containing 1% (w/v) nonidet P-40 for solubilization of proteins, were used for the separation of native enzymes. After electrophoresis of tissue samples (10–40 μg protein), the gels were stained for esterase activity with 1-naphthylacetate through coupling to liberated 1-naphthol with Fast Red TR-salt.
All proteins with hydrolytic activity can be visualized by this technique. […] In order to compare skin esterase with tissue-specific CES isozymes, the microsomal fraction of each rat organ was applied to a native PAGE gel.

[9] = after application of caproyl-PL, labelled species
[10] = after application of caproyl-PL, labelled species, full-thickness skin with BNPP
[11] = after application of caproyl-PL, total, full-thickness skin with BNPP
[12] = after application of caproyl-PL, full-thickness skin, n = 6
[13] = after application of caproyl-PL, labelled species, full-thickness skin
[14] = after application of caproyl-PL, total of caproyl-PL and PL, full-thickness skin
[15] = caproyl-PL applied to full-thickness skin
[16] = after application of caproyl-PL, labelled species, stripped skin
[17] = after application of caproyl-PL, total, stripped skin
[18] = after application of PL, full-thickness skin with BNPP
[19] = after application of PL, full-thickness skin
[20] = after application of PL, stripped skin
[21] = hydrolysis, skin S9 300 μg/mL, 50 mM HEPES pH 7.4

O=[N+]([O-])c1ccc(OP(=O)(O)Oc2ccc([N+](=O)[O-])cc2)cc1 [BNPP, bis-p-nitrophenyl phosphate]
PL conversion from caproyl-PL after treatment with BNPP ([1]; 2 mM BNPP on receiver side for 1 h, full-thickness skin): markedly decreased

CCCCCC(=O)OC(CNC(C)C)COc1cccc2ccccc12.Cl (stereo not drawn) [Caproyl-PL, O-caproyl-PL hydrochloride]
Permeated amount after 12 h [1, 9]: 3.9 ± 3.4 nmol | Lag time [1, 10]: 8.3 ± 1.2 h | Skin concentration at 12 h [1, 10]: 2,100 ± 220 nmol/g tissue | Steady state flux [1, 10]: 0.83 ± 0.65 nmol/h | Lag time, Total [1, 11]: 6.4 ± 0.92 h | Permeated amount after 12 h, Total [1, 11]: 25 ± 21 nmol | Skin concentration at 12 h, Total [1, 11]: 2,200 ± 230 nmol/g tissue | Steady state flux, Total [1, 11]: 4.1 ± 3.1 nmol/h | Permeated amount, steady state flux and Kp value of intact caproyl-PL, increase by treatment with BNPP ([1]; full-thickness skin with vs without BNPP): 2 fold | Skin concentration of caproyl-PL relative to PL (higher) ([2]; 12 h after dosing caproyl-PL, full-thickness skin): 3.5 fold | Permeated amount after 12 h [2, 12]: 1.7 ± 1.4 nmol | Lag time [2, 13]: 7.0 ± 0.78 h | Skin concentration at 12 h [2, 13]: 1,900 ± 630 nmol/g tissue | Steady state flux [2, 13]: 0.40 ± 0.28 nmol/h | Skin concentration at 12 h ([2]; after application of caproyl-PL, labelled species, full-thickness skin, listed as caproyl-PL): 1900 ± 630 nmol/g tissue | Lag time, Total [2, 14]: 4.9 h and 4.9 ± 1.1 h | Permeated amount after 12 h, Total [2, 14]: 140 ± 33 nmol | Skin concentration at 12 h, Total [2, 14]: 2,400 ± 780 nmol/g tissue | Steady state flux, Total [2, 14]: 20 ± 6.1 nmol/h | Predicted concentration of caproyl-PL in viable epidermis and dermis ([2]; after application to full-thickness skin, estimated from flux and permeation clearance): about 500 nmol/g tissue | Dose retained in the stratum corneum [2, 15]: 75% | Dose transferred into viable skin [2, 15]: 25% | Predicted concentration in viable epidermis and dermis relative to Km value (higher) ([2]; full-thickness skin): 25 fold | Vmax ([3]; hydrolysis of caproyl-PL in rat skin S9): 9.24 ± 2.95 nmol/min/mg S9 protein | Km ([3]; hydrolysis of caproyl-PL in rat skin S9, read-out: Km value): 19.7 ± 5.36 µM | Hydrolysis in skin S9 relative to liver microsomes (slower) [3]: 20 fold | log PC ([4]; between 1-octanol and pH 4.0 phosphate buffer, method and reference not given): 2.3 | pKa ([4]; stated in discussion, method and reference not given): 9.1 | Constant concentration in donor compartment (suspension) ([4]; suspension in pH 4.0 acetate buffer): 6.4 mM | Steady-state flux and Kp values of intact caproyl-PL in stripped skin relative to full-thickness skin (greater) (after application of caproyl-PL): 6 fold | Lag time [16]: 4.7 ± 1.7 h | Permeated amount after 12 h [16]: 12 ± 13 nmol | Skin concentration at 12 h [16]: 3,200 ± 580 nmol/g tissue | Steady state flux [16]: 2.4 ± 0.98 nmol/h | Skin concentration at 12 h (after application of caproyl-PL, labelled species, stripped skin, listed as caproyl-PL): 3200 ± 580 nmol/g tissue | Permeated amount after 12 h, Total (after application of caproyl-PL, total of caproyl-PL and PL, stripped skin): 200 ± 50 nmol | Lag time, Total [17]: 3.6 ± 0.43 h | Skin concentration at 12 h, Total [17]: 4,100 ± 600 nmol/g tissue | Steady state flux, Total [17]: 23 ± 5.5 nmol/h | Permeation clearance from viable skin to receptor fluid (calculated from steady-state flux and cutaneous concentration in stripped skin): 0.75 mg tissue/h | Concentration of caproyl-PL in stripped skin relative to Km value (higher) (vs Km in skin S9): 160 fold | Nonenzymatic hydrolysis of caproyl-PL to PL ([5]; in 12 h, pH 4.0 acetate buffer): < 0.1% | Nonenzymatic hydrolysis of caproyl-PL ([5]; sampling period 1 h, pH 6.8 PBS containing 3% BSA): < 0.05%

CC(C)NCC(O)COc1cccc2ccccc12 (stereo not drawn) [PL, propranolol]
Amount permeated after 12 h [1, 18]: 2,600 ± 990 nmol | Lag time [1, 18]: 0.84 ± 0.24 h | Skin concentration at 12 h [1, 18]: 9,900 ± 590 nmol/g tissue | Steady state flux [1, 18]: 240 ± 87 nmol/h | Permeated amount after 12 h [1, 9]: 21 ± 18 nmol | Lag time [1, 10]: 6.3 ± 0.93 h | Skin concentration at 12 h [1, 10]: 130 ± 7.7 nmol/g tissue | Steady state flux [1, 10]: 3.5 ± 2.6 nmol/h | Lag time [2, 19]: 1.5 ± 0.56 h | Skin concentration at 12 h [2, 19]: 9,400 ± 380 nmol/g tissue | Steady state flux [2, 19]: 240 ± 94 nmol/h | Amount permeated after 12 h ([2]; after application of PL, full-thickness skin, n = 6): 2,600 ± 970 nmol | Permeated amount after 12 h [2, 12]: 140 ± 35 nmol | Lag time [2, 13]: 4.9 ± 1.1 h | Skin concentration at 12 h [2, 13]: 550 ± 120 nmol/g tissue | Steady state flux [2, 13]: 20 ± 6.2 nmol/h | Amount permeated after 12 h [20]: 17,000 ± 3,600 nmol | Lag time [20]: 1.4 ± 0.36 h | Skin concentration at 12 h [20]: 6,900 ± 3,700 nmol/g tissue | Lag time [16]: 3.6 ± 0.38 h | Permeated amount after 12 h [16]: 190 ± 55 nmol | Skin concentration at 12 h [16]: 870 ± 44 nmol/g tissue | Steady state flux [16]: 22 ± 6.4 nmol/h

CC(=O)Oc1ccc([N+](=O)[O-])cc1 [PNPA, p-nitrophenylacetate]
Vmax [6]: 3,570 ± 810 nmol/min/mg protein | Km ([6]; rat): 57 ± 18.2 µM | Vmax [3, 21]: 188 ± 30.3 nmol/min/mg protein | Km ([3]; rat, skin S9 fraction, hydrolysis, skin S9 300 μg/mL, 50 mM HEPES pH 7.4, 37 °C, mean ± S.D. (n = 3/4), read-out: Km): 55.5 ± 8.18 µM | Hydrolysis in skin S9 relative to liver microsomes (slower) [3]: around 20 fold | Vmax in skin S9 relative to liver microsomes (smaller) [3]: 19 fold | Vmax/Km in skin S9 relative to liver microsomes (smaller) [3]: 21 fold | Vmax [7]: 2,432 ± 497 nmol/min/mg protein | Km ([7]; rat): 268 ± 83.8 µM | Km ([8]; male, rat): 34.6 ± 1.27 µM | Vmax [8]: 1,606 ± 333 nmol/min/mg protein

CCCC(=O)Oc1ccc([N+](=O)[O-])cc1 [PNPB, p-nitrophenylbutyrate]
Km [6]: 37.1 ± 9.42 µM | Vmax [6]: 4,220 ± 521 nmol/min/mg protein | Vmax [3, 21]: 460 ± 127 nmol/min/mg protein | Km ([3]; hydrolysis, skin S9 300 μg/mL, 50 mM HEPES pH 7.4, 37 °C, mean ± S.D. (n = 3/4), read-out: Km): 97.1 ± 30.2 µM | Hydrolysis in skin S9 relative to liver microsomes (slower) [3]: around 20 fold | Vmax in skin S9 relative to liver microsomes (smaller) [3]: 9 fold | Vmax/Km in skin S9 relative to liver microsomes (smaller) [3]: 24 fold | Km [7]: 97 ± 16.6 µM | Vmax [7]: 994 ± 286 nmol/min/mg protein | Km [8]: 63.4 ± 13.9 µM | Vmax [8]: 2,978 ± 398 nmol/min/mg protein

CCN(CC)C(C)CN1c2ccccc2Sc2ccccc21 (stereo not drawn) [ethopropazine]
Inhibition of formation of esterase bands of skin S9 (esterases of rat skin S9): not inhibited
